In patent publication US5066674A, “Carbamate inhibitors of cholesterol esterase and their use as hypolipidemic and hypocaloric agents” (University of Iowa Research Foundation, priority 1990, dated 1991):

Target: Pancreatic cholesterol esterase (CEase)
Experiment: CEase-catalyzed hydrolysis of p-nitrophenylbutyrate (PNPB), irreversible inhibition timecourse
Type: biochemical
Details: for Second-order inhibition rate constant ki/Ki: PNPB substrate, 25.0 °C, pH 7.3, 0.1M sodium phosphate, 0.1N NaCl, 1 mM Triton X100; for t1/2, half-life of irreversible inhibition: in presence of 10^-5 M inhibitor, calculated t1/2 = ln(2)/(ki[I])
Description: The CEase-catalyzed hydrolysis of the water-soluble substrate p-nitrophenylbutyrate (PNPB) is the reaction that was routinely used to characterize irreversible inhibitors. The reaction is followed at 25.0±0.1° C. and pH 7.3 in 0.1M sodium phosphate buffer that contains 0.1N NaCl, 1 mM Triton X100, and the appropriate concentrations of CEase and PNPB. Characterization of inhibitors occurs in three steps: First, inhibitor is added to CEase and the percent activity of the enzyme is measured as a function of time. A corresponding control (contains no inhibitor) measures the 100% activity level. Secondly, the pseudo-first order inhibition rate constant is calculated from the activity versus time data.
%A=(%AO -%Ainf)e^-kt +%Ainf (1)
The pseudofirst order inhibition rate constant is plotted versus [I]. If the plot is linear, the second-order inhibition rate constant, ki /Ki, is the slope of a linear-leastsquares fit of the plot. And, thirdly, if plot is nonlinear and hyperbolic, the following inhibition mechanism is indicated: [drawing 5] In this mechanism, the inhibitor first forms a reversible, noncovalent complex, EI, with the enzyme. An enzymic nucleophile, presumably the active site serine (cf. Scheme I) then attacks the carbonyl carbon of the carbamate functionality of the inhibitor, with subsequent expulsion of the aromatic leaving group. For the above mechanism, the dependence of k on [I] is described by the following equation: [formula] […] From this fit the maximum first-order inhibition rate constant (ki) and the dissociation constant of EI (Ki) were determined, and consequently ki /Ki could be calculated.

Structure (SMILES) | Second-order inhibition rate constant ki/Ki | Irreversible inhibition of CEase (statement in words) (comparison of second-order inhibition rate constants of Table I) | t1/2, half-life of irreversible inhibition
CCCCCCCCNC(=O)Oc1ccc2ccccc2c1 [2-Naphthyl n-Octyl Carbamate] | 1350 M⁻¹ s⁻¹ | most potent irreversible carbamate inhibitor of CEase | 0.86 min
CCCCNC(=O)Oc1ccc(NC(C)=O)cc1 [p-Acetamidophenyl n-Butyl Carbamate] | 40 M⁻¹ s⁻¹ |  | 29 min
CCCCCCNC(=O)Oc1ccc(NC(C)=O)cc1 [p-Acetamidophenyl n-Hexyl Carbamate] | 493 M⁻¹ s⁻¹ |  | 2.3 min
CCCCCCCCNC(=O)Oc1ccc(NC(C)=O)cc1 [p-Acetamidophenyl n-Octyl Carbamate] | 100 M⁻¹ s⁻¹ |  | 11.6 min
CCCCCNC(=O)Oc1ccc(NC(C)=O)cc1 [p-Acetamidophenyl n-Pentyl Carbamate] | 100 M⁻¹ s⁻¹ |  | 11.6 min
